Test results reported in paper PMC11470957, “Principles of paralog-specific targeted protein degradation engaging the C-degron E3 KLHDC2” (Nature Communications, 2024).
“And” between values parts separate entries of the source, which are not always exact repeats. Equal entries are not always repeated.

How the values were obtained:
BRD2 = BRD2 (Homo sapiens, UniProt P25440); test: Western blot of BRD2 levels after cellular dosing
[1] = test system: BRD proteins in U2OS KO/rescue lysate; test: Degradation in non-denaturing lysates of U2OS KO/rescue cells; settings: non-denaturing U2OS KO/rescue lysate 4mg/ml, 10 µM, 30° C
KLHDC2 = biological target: T1, KLHDC2 (Homo sapiens, UniProt Q9Y2U9); test: Western blot of KLHDC2 levels after cellular dosing
T1 sequence (Q9Y2U9 1-406): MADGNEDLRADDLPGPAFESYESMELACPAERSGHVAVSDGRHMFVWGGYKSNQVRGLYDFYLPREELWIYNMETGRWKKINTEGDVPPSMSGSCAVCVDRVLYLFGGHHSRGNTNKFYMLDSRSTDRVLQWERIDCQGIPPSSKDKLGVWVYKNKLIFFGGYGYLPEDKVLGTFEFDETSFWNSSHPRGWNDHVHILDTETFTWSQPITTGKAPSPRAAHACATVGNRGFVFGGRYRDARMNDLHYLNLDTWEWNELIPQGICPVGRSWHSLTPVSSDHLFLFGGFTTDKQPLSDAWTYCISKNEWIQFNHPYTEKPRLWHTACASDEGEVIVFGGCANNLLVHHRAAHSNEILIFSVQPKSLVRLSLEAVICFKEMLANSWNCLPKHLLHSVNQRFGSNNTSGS

[2] = Fig S6b, MDA-MB468 Cells, 10 uM

BRD2, sequence (P25440 whole entry): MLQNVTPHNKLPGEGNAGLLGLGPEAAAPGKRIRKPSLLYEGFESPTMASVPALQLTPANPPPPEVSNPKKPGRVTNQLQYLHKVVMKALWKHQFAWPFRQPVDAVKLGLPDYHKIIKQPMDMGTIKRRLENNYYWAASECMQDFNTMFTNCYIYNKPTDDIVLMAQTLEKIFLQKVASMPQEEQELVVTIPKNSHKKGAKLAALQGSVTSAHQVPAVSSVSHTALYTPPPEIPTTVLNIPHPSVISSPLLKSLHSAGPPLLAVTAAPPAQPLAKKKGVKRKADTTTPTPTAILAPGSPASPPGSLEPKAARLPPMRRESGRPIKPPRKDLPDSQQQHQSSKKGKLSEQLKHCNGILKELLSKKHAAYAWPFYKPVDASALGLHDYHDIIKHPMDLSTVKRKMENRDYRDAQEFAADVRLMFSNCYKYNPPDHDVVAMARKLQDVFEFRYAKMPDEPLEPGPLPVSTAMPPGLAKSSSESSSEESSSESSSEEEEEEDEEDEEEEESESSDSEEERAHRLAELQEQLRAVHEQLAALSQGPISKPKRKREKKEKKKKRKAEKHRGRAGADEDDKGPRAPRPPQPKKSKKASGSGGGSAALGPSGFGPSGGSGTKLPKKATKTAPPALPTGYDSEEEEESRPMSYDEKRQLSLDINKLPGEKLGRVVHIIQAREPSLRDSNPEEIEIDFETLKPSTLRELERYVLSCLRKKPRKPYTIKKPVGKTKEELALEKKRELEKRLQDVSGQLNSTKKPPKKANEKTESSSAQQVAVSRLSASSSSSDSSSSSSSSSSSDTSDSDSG

Cc1sc2c(c1C)C(c1ccc(Cl)cc1)=N[C@@H](CC(=O)N1CCN(CCOc3cccc4ccc(-c5nc(CC(=O)NCC(=O)O)cs5)cc34)CC1)c1nnc(C)n1-2 [SJ46421]
BRD2 level, Western blot quantification (DMSO = 100) (BRD2; Fig 6b, KO/Rescue, 5 uM): 112.267 and 101.949 | BRD2 level, Western blot quantification (DMSO = 100) (BRD2; Fig 6b, U2OS, 5 uM): 136.72 and 118.225 | BRD2 level, Western blot quantification (DMSO = 100) (BRD2; Fig S6a, 293T cells, 2.5 uM): 72.5135 and 88.7213 | BRD2 level, Western blot quantification (DMSO = 100) (BRD2; Fig S6a, 293T cells, 5 uM): 75.5009 and 85.1412 | BRD2 level, Western blot quantification (DMSO = 100) (BRD2; [2]): 62.2331 and 83.5917 | degrader dependent decrease in BRD protein levels in lysate [1]: did not observe a degrader dependent decrease | KLHDC2 level, Western blot quantification (KLHDC2; Fig 6b, KO/Rescue, 5 uM, DMSO printed 0): 0 | KLHDC2 level, Western blot quantification (DMSO = 100) (KLHDC2; Fig 6b, U2OS, 5 uM): 103.737 and 122.001 | KLHDC2 level, Western blot quantification (DMSO = 100) (KLHDC2; Fig S6a, 293T cells, 2.5 uM): 109.414 and 102 | KLHDC2 level, Western blot quantification (DMSO = 100) (KLHDC2; Fig S6a, 293T cells, 5 uM): 112.068 and 103 | KLHDC2 level, Western blot quantification (DMSO = 100) (KLHDC2; [2]): 128.202 and 120
